Assay results from patent US8445440B2, “Dimeric IAP inhibitors” (Novartis AG, priority 2010, dated 2013).

Assays:
XIAP-BIR3 = XIAP-BIR3 (Homo sapiens, UniProt P98170); assay: Biacore SPR solution competition binding assay vs smac7 mer peptide, XIAP-BIR3; details: citrate salt form tested; 100 nM XIAP-BIR3; 25° C.; read-out: XIAP-BIR3 Binding Biacore (Competitive) EC50
From the text: (§1) The compounds described herein above were profiled using a cellular assay (using SKOV3 or Panc3.27 tumor cells) and a binding assay to determine the competition between the compounds of the present invention and smac7 mer peptide for XIAP-BIR3 and cIAP1-BIR3 binding groove occupancy.
(§2) The present method includes utility of a Surface plasmon resonance (SPR)-based biosensor (Biacore™ GE Healthcare, Uppsala, Sweden) to examine competition between the compounds of the present invention and smac7 mer peptide for XIAP-BIR3 and cIAP1-BIR3 binding groove occupancy.
(§3) Biacore™ utilizes the phenomenon of surface plasmon resonance (SPR) to detect and measure binding interactions. In a typical Biacore experiment, one of the interacting molecules is immobilized on a flexible dextran matrix while the interacting partner is flowed over the derivatized surface. A binding interaction results in an increase in mass on the sensor surface and a corresponding direct change in the refractive index of the medium in the vicinity of the sensor surface. Changes in refractive index or signal are recorded in resonance units (R.U.) Signal changes due to association and dissociation of complexes are monitored in a non-invasive manner, continuously and in real-time, the results of which are reported in the form of a sensorgram.
(§4) Biacore™ T100 (GE Healthcare, Uppsala, Sweden) was used to conduct all experiments reported herein. Sensor surface preparation and interaction analyses were performed at 25° C. Buffer and Biacore reagents were purchased from GE Healthcare. Running buffer containing 10 mM Hepes, pH7.4, 150 mM sodium chloride, 1.25 mM Dithiothreitol, 2% Dimethyl sulfoxide and 0.05% polysorbate 20 was utilized throughout all experiments.
(§5) Biotinylated smac7 mer peptide was diluted to 10 nM in running buffer and captured onto a sensor surface pre-derivatized with streptavidin (sensor chip SA) towards peptide surface densities in the range 40-100 R.U. Peptide captured surfaces were blocked with 500 μM PEO2-Biotin (Thermo Scientific).
(§6) Interaction analyses were performed by first equilibrating each compound within a six point seven fold compound dilution series in the range 1 μM to 0.06 nM with either 100 nM XIAP-BIR3 or 6 nM cIAP1-BIR3 for at least one hour during instrument start-up procedures. Protein compound mixtures were then injected over reference and smac7 mer peptide surfaces in series for 60 seconds at a flow-rate of 64 μL/minutes. Surface regeneration was performed at the end of each analysis cycle by a 30 second injection of 10 mM Glycine, pH 2.5, 1M Sodium Chloride, 0.05% polysorbate 20. Additionally, control compound samples and control XIAP-BIR3 or cIAP1-BIR3 samples were prepared and run at regular intervals to monitor surface and assay performance.
(§7) Data analyses were carried out using Biacore™ T100 evaluation software v2.0 to validate assay quality. Binding level report points were plotted versus logarithmic compound concentration values and analyzed in Graphpad prism 5 via non-linear regression using a one-site competition model. EC50 values were generated and used as a measure of inhibitor potency.

cIAP1-BIR3 = cIAP1-BIR3 (Homo sapiens, UniProt Q13490); assay: Biacore SPR solution competition binding assay vs smac7 mer peptide, cIAP1-BIR3; details: citrate salt form tested; 6 nM cIAP1-BIR3; 25° C.; read-out: CIAP-BIR3 Binding Biacore (Competitive) EC50
Sequence of cIAP1-BIR3 (Q13490 260-352 limits assumed): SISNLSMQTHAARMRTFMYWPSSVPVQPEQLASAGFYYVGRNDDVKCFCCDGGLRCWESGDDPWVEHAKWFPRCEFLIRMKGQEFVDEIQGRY
From the text: as §1, §2, §3, §4, §5, §6, §7

SKOV3 tumor cells = assay: Cellular assay, SKOV3 tumor cell proliferation (Cell Titer Glo); assay type: cell-based; details: Homo sapiens, SK-OV-3, citrate salt form tested, 72 hour growth
Protocol: as §1
(§8) On day one adherent SKOV3 and Panc3.27 cells are plated into two 96-well, clear, flat bottom plates. All wells in row A contain 90 uL of media. All wells in rows B-G contain a total volume of 90 uL per well and 2000 cells per well for SKOV3 and 4000 cells per well for Panc3.27 cell lines. Plates are then incubated overnight for 18 hours at 37° C., 5% CO2.
(§9) On day two cells are treated with the compounds of formula M-L-M′. Treatments are done in triplicate. The compounds are first serially diluted in DMSO and then added to media giving a final concentration of 0.2% DMSO when added to cells. Cells are treated with 10 uL of serially diluted compounds of formula M-L-M′ at a final concentration of 1000 nM, 200 nM, 40 nM, 8 nM, 1.6 nM, 0.32 nM, 0.06 nM, 0.013 nM, 0.0026 nM, and one untreated well. Plate two is used as a time zero plate.
(§10) To measure cell viability 50 uL of Cell Titer Glo (CTG) solution is added to row A, media only and B, cells and media. CTG is purchased from Promega Corporation catalog number G7573. The solution is prepared according to manufacturer's instructions. CTG measures the amount of ATP released from viable cells that is proportional to the number of cells in each well. After incubating for ten minutes with CTG plates are measured on a luminescent reader at 700 nm wavelength. Read time is approximately one second per well for a 96-well plate.
(§11) On day five 50 uL of CTG is added to plate one, rows A-G, incubated for 10 minutes at room temperature and read on a luminescent reader. Raw data is adjusted to account for the time zero plate as well as background noise. Triplicate values are averaged and percent control growth is calculated. Percent control growth is calculated using the following logical test: If well read data point (a) is greater than time zero data point (t=0), then 100*[(a)−(t=0)]/[(72 hour total growth)−(t=0)], OR 100*[(a)−(t=0)]/[(t=0)]. Data is represented by line graph with the concentration of compound on the x axis and percent control growth on the y axis.

Panc3.27 tumor cells = assay: Cellular assay, Panc3.27 tumor cell proliferation (Cell Titer Glo); assay type: cell-based; details: citrate salt form tested, Panc3.27 cells, 72 hour growth, read-out: PANC proliferation IC50
Protocol: as §1, §8, §9, §10, §11

Sequence of XIAP-BIR3 (P98170 241-356 limits assumed): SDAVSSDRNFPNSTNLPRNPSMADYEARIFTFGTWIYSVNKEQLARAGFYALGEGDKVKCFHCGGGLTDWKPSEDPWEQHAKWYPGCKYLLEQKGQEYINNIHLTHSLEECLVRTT

EC50 (XIAP-BIR3)	EC50 (cIAP1-BIR3)	IC50 (SKOV3 tumor cells)	IC50 (Panc3.27 tumor cells)	SMILES
99.4 to 104 nM	0.73 to 0.81 nM	17.1 to 23.5 nM	37.6 to 95.7 nM	CN[C@@H](C)C(=O)N[C@@H](Cc1ccc(NC(=O)CCCCCCCC(=O)Nc2ccc(C[C@H](NC(=O)[C@H](C)NC)C(=O)N3CCC[C@H]3c3cncc(C(=O)c4ccc(F)cc4)c3)cc2)cc1)C(=O)N1CCC[C@H]1c1cncc(C(=O)c2ccc(F)cc2)c1 [Example 2E, Nonanedioic acid bis-({4-[(S)-3-{(S)-2-[5-(4-fluoro-benzoyl)-pyridin-3-yl]-pyrrolidin-1-yl}-2-((S)-2-methylamino-propionylamino)-3-oxo-propyl]-phenyl}-amide)]
146 to 154 nM	0.73 to 0.74 nM	23.5 to 25.8 nM	–	CN[C@@H](C)C(=O)N[C@@H](Cc1ccc(NC(=O)CCCCCC(=O)Nc2ccc(C[C@H](NC(=O)[C@H](C)NC)C(=O)N3CCC[C@H]3c3cncc(C(=O)c4ccc(F)cc4)c3)cc2)cc1)C(=O)N1CCC[C@H]1c1cncc(C(=O)c2ccc(F)cc2)c1 [Example 2A, Heptanedioic acid bis-({4-[(S)-3-{(S)-2-[5-(4-fluoro-benzoyl)-pyridin-3-yl]-pyrrolidin-1-yl}-2-((S)-2-methylamino-propionylamino)-3-oxo-propyl]-phenyl}-amide)]
123 to 126 nM	0.7 nM	≥ 967 nM	88.3 to 393 nM	CN[C@@H](C)C(=O)N[C@@H](Cc1ccc(NC(=O)CCCC(=O)Nc2ccc(C[C@H](NC(=O)[C@H](C)NC)C(=O)N3CCC[C@H]3c3cncc(C(=O)c4ccc(F)cc4)c3)cc2)cc1)C(=O)N1CCC[C@H]1c1cncc(C(=O)c2ccc(F)cc2)c1 [Example 2F, Pentanedioic acid bis-({4-[(S)-3-{(S)-2-[5-(4-fluoro-benzoyl)-pyridin-3-yl]-pyrrolidin-1-yl}-2-((S)-2-methylamino-propionylamino)-3-oxo-propyl]-phenyl}-amide)]
125 to 138 nM	0.58 to 0.6 nM	59.7 to 317 nM	144 to 391 nM	CN[C@@H](C)C(=O)N[C@@H](Cc1ccc(NC(=O)CCCCC(=O)Nc2ccc(C[C@H](NC(=O)[C@H](C)NC)C(=O)N3CCC[C@H]3c3cncc(C(=O)c4ccc(F)cc4)c3)cc2)cc1)C(=O)N1CCC[C@H]1c1cncc(C(=O)c2ccc(F)cc2)c1 [Example 2C, Hexanedioic acid bis-({4-[(S)-3-{(S)-2-[5-(4-fluoro-benzoyl)-pyridin-3-yl]-pyrrolidin-1-yl}-2-((S)-2-methylamino-propionylamino)-3-oxo-propyl]-phenyl}-amide)]
228 to 238 nM	0.66 to 0.68 nM	107 to 291 nM	167 to 694 nM	CN[C@@H](C)C(=O)N[C@@H](Cc1ccc(NC(=O)c2cccc(C(=O)Nc3ccc(C[C@H](NC(=O)[C@H](C)NC)C(=O)N4CCC[C@H]4c4cncc(C(=O)c5ccc(F)cc5)c4)cc3)c2)cc1)C(=O)N1CCCC1c1cncc(C(=O)c2ccc(F)cc2)c1 (stereo partly drawn) [Example 2D, N,N′-Bis-{4-[(S)-3-{(S)-2-[5-(4-fluoro-benzoyl)-pyridin-3-yl]-pyrrolidin-1-yl}-2-((S)-2-methylamino-propionylamino)-3-oxo-propyl]-pheny}-isophthalamide]

The remaining lines, values behind:

SMILES	EC50 (XIAP-BIR3)	EC50 (cIAP1-BIR3)	IC50 (SKOV3 tumor cells)	IC50 (Panc3.27 tumor cells)
CN[C@@H](C)C(=O)N[C@@H](CCCCNC(=O)CCCCCCCCC(=O)NCCCC[C@H](NC(=O)[C@H](C)NC)C(=O)N1CCC[C@H]1c1cncc(C(=O)c2ccc(F)cc2)c1)C(=O)N1CCC[C@H]1c1cncc(C(=O)c2ccc(F)cc2)c1 [Example 1G, Decanedioic acid bis-{[(S)-6-{(S)-2-[5-(4-fluoro-benozyl)-pyridin-3-yl]-pyrrolidin-1-yl}-5-((S)-2-methylamino-propionylamino)-6-oxo-hexyl]-amide}]	97.2 to 108 nM	0.71 nM	9.64 to 16.4 nM	5.22 to 27.9 nM
CN[C@@H](C)C(=O)N[C@@H](CCCCNC(=O)CCCCCCCC(=O)NCCCC[C@H](NC(=O)[C@H](C)NC)C(=O)N1CCC[C@H]1c1cncc(C(=O)c2ccc(F)cc2)c1)C(=O)N1CCC[C@H]1c1cncc(C(=O)c2ccc(F)cc2)c1 [Example 1F, Nonanedioic acid bis-{[(S)-6-{(S)-2-[5-(4-fluoro-benzoyl)-pyridin-3-yl]-pyrrolidin-1-yl}-5-((S)-2-methylamino-propionylamino)-6-oxo-hexyl]-amide}]	129 to 145 nM	0.68 to 0.69 nM	16.1 to 20.1 nM	12.8 to 106 nM
CN[C@@H](C)C(=O)N[C@@H](CCCCNC(=O)CCCCCC(=O)NCCCC[C@H](NC(=O)[C@H](C)NC)C(=O)N1CCC[C@H]1c1cncc(C(=O)c2ccc(F)cc2)c1)C(=O)N1CCC[C@H]1c1cncc(C(=O)c2ccc(F)cc2)c1 [Example 1A, Heptanedioic acid bis-{[(S)-6-{(S)-2-[5-(4-fluoro-benzoyl)-pyridin-3-yl]-pyrrolidin-1-yl}-5-((S)-2-methylamino-propionylamino)-6-oxo-hexyl]-amide}]	126 to 131 nM	0.68 to 0.7 nM	41 to 77.1 nM	72.4 to 427 nM
CN[C@@H](C)C(=O)N[C@@H](CCCCNC(=O)c1cccc(C(=O)NCCCC[C@H](NC(=O)[C@H](C)NC)C(=O)N2CCC[C@H]2c2cncc(C(=O)c3ccc(F)cc3)c2)c1)C(=O)N1CCC[C@H]1c1cncc(C(=O)c2ccc(F)cc2)c1 [Example 1E, N,N′-Bis-[(S)-6-{(S)-2-[5-(4-fluoro-benzoyl)-pyridin-3-yl]-pyrrolidin-1-y}-5-((S)-2-methylamino-propionylamino)-6-oxo-hexyl]-isophthalamide]	139 to 158 nM	0.47 to 0.52 nM	26.7 to 79.4 nM	26.8 to 185 nM
CN[C@@H](C)C(=O)N[C@@H](CCCCNS(=O)(=O)c1ccc(-c2ccc(S(=O)(=O)NCCCC[C@H](NC(=O)[C@H](C)NC)C(=O)N3CCC[C@H]3c3cncc(C(=O)c4ccc(F)cc4)c3)cc2)cc1)C(=O)N1CCC[C@H]1c1cncc(C(=O)c2ccc(F)cc2)c1 [Example 1D, (S)-N-((S)-1-((S)-2-(5-(4-fluorobenzoyl)pyridin-3-yl)pyrrolidin-1-yl)-6-(4′-(N-((S)-6-((S)-2-(5-(4-fluorobenzoyl)pyridin-3-yl)pyrrolidin-1-yl)-5-((S)-2-(methylamino)propanamido)-6-oxohexyl)sulfamoyl)biphenyl-4-ylsulfonamido)-1-oxohexan-2-yl)-2-(methylamino)propanamide]	88.5 to 129 nM	0.31 to 0.34 nM	37.4 to 84.2 nM	12.3 to 119 nM
